This is an account of results in PubChem BioAssay AID743417 (Broad Institute, 2014).

Inconclusive results are not listed. Calls of active or inactive are those of the source.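 The calls were made as follows: active = compounds lowering the luciferase signal with a fitted half-maximal dose at most twice their top valid dose (cut at about 30 µM in these data); inconclusive = flat fits with moderate signal loss, or poor fits; inactive = the rest.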 Where only a bound is given, the exact number is not on record here.

The test system of the assay is Clone20 osteoblast Shn3 3'UTR firefly luciferase, 24 h. Description: Shn3 3'UTR reporter inhibitors, dose response, cell-based, Clone20 osteoblasts, luminescence, dry powder, set 2 (AID 743417).

As usually defined, the AC50 is the concentration giving half of the maximal activity seen. Turning to `Oc1ccc(CN2CCc3ccccc3C2)c2cccnc12`, the concentration at half-maximal activity (AC50) was 673 nM.

As to `COc1ccccc1N1CCN(C(=O)C2CCCN(S(=O)(=O)c3ccc4c(c3)CCCN4C(C)=O)C2)CC1` (centres undefined), the AC50 is 2680 nM.

For `CCC(OC(=O)c1ccc(S(C)(=O)=O)c([N+](=O)[O-])c1)C(=O)NC1C2CC3CC(C2)CC1C3` (centres undefined), the AC50 is 1660 nM. As for `COc1ccc(C2=Nn3c([n+](C)c4ccccc43)SC2)cc1`, the AC50 was 1160 nM. For `CCS(=O)(=O)c1ncc(Cl)c(C(=O)Nc2ccccc2OC)n1`, the AC50 was 3710 nM.

With `O=C(NNC(=O)C1CCN(S(=O)(=O)c2ccc(Cl)cc2)CC1)c1ccccc1O`, the AC50 is 18500 nM. With `COc1ccc(CNC(=O)c2cc3c(C)nc4ccccc4c3o2)c(OC)c1`, the AC50 was 3220 nM. As for `COC(=O)C12OCC34C(CC5C(C)=C(O)C(=O)CC5(C)C3C(O)C1O)OC(=O)C(OC(=O)/C=C(\C)C(C)C)C24` (centres undefined), the AC50 is below 260 nM. Regarding `Nc1nc(N)c2cc(S(=O)(=O)c3ccc4ccccc4c3)ccc2n1`, the AC50 was 3370 nM. Consider `COc1ccc(-c2csc(NC(=O)C3CCN(c4ncnc5sc(C)c(C)c45)CC3)n2)cc1OC`, for which the half-maximal activity concentration (AC50) was 1420 nM. `O=C(Nc1nc(-c2ccccn2)cs1)c1ccc(F)c(S(=O)(=O)N2CCOCC2)c1`: the AC50 was 1320 nM. As for `CC(=O)Nc1ccc(Sc2ccc([N+](=O)[O-])o2)cc1`, the concentration at half-maximal activity (AC50) is 2150 nM. Turning to `C=CCn1c(C)cc(C2=NNC(=NCC)SC2)c1C`, the AC50 is below 260 nM.

Take `O=C(Nc1ccc(N2CCN(C(=O)c3ccco3)CC2)c(Cl)c1)c1cc2ccccc2o1`: the AC50 is 5000 nM. The same measure for `CC(C)(C)OC(=O)NCCCCCNC(=O)c1nc[nH]c1C(=O)NCc1ccc(CNC(=O)OC(C)(C)C)cc1`: 3950 nM; for `CC(C)n1c(/C=C/[C@H](O)C[C@H](O)CC(=O)O)c(-c2ccc(F)cc2)c2ccccc21`: 1420 nM. Take `CC(C)c1ccc(Oc2cccc3c2S(=O)(=O)N(C2CCCC2)CC(COCc2ccccc2)O3)cc1` (centres undefined): the AC50 is 15500 nM. In the case of `O=C(CSc1c2c(nc3ccc(Cl)cc13)CCCC2)N1CCN(C(=O)c2ccco2)CC1`, the concentration at half-maximal activity (AC50) is 3750 nM.

Take `CC(C)C(=O)NC(c1ccco1)c1ccc2cccnc2c1O` (centres undefined): the AC50 was 2050 nM. `Oc1c(C(Nc2ccccn2)c2ccccn2)ccc2cccnc12` (centres undefined): the AC50 was 4360 nM.

`O=[N+]([O-])c1c(NCCO)cc(Sc2nc3ccccc3s2)c2nonc12`: the AC50 is 1640 nM. As to `CCCCCCCCOC(=O)c1cc([N+](=O)[O-])c(Sc2ncnc3nc[nH]c23)c([N+](=O)[O-])c1`, the half-maximal activity concentration (AC50) is 2810 nM. Regarding `COc1ccc(COc2ccccc2C(=O)NCc2ccccc2)cc1F`, the AC50 is 4760 nM.

Consider `COc1ccc(NS(=O)(=O)c2ccc(-c3cnc(C4CC4)o3)cc2)cc1OC`, for which the AC50 is 1330 nM. Turning to `CC(C)(C)c1nc(NCCN2CCOCC2)c2nnn(Cc3ccccc3Cl)c2n1`, the AC50 is 8850 nM. As to `CC1CCC/C=C/C(=O)c2c(O)cc(O)cc2CC(=O)O1` (centres undefined), the AC50 is 4120 nM. Take `CC(C)(C)c1cc(C(=O)N/N=C/c2ccccc2O)n(-c2ccccc2)n1`: the AC50 is 2250 nM.

On to `CCN(CC)CC(C)(C)C(=O)/C=C/c1ccc(/C=C/C(=O)C(C)(C)CN(CC)CC)cc1`, for which the concentration at half-maximal activity (AC50) is 468 nM. On to `CS(=O)(=O)c1nc(-c2ccc(F)cc2)cc(C(F)(F)F)n1`, for which the AC50 was 2720 nM. With `CCOC(=O)c1cnc(-n2nc(C)cc2C)nc1NC1CCCC1`, the AC50 is 4400 nM. Consider `Cc1ccc(S(=O)(=O)N2CCC3(CC2)OCCN3S(=O)(=O)c2c(C)cc(C)cc2C)cc1`, for which the AC50 is 6810 nM. On to `COc1ccc(CCNC(=O)CCC(=O)N2CCOc3ccc(Cl)cc32)cc1OC`, for which the AC50 was > 70000 nM (inactive). The same measure for `O=C(Nc1ccc(S(=O)(=O)N2CCCC2)cc1)c1ccc(CN2CCc3ccccc3C2)cc1`: 575 nM. For the compound `COc1ccc(CCNc2cc(N3CCN(C(=O)c4ccccc4OC)CC3)ccc2[N+](=O)[O-])cc1OC`, the AC50 is 2630 nM.

For the compound `Cc1cc(C)nc(S/C=C/C(=O)c2ccccc2)n1`, the AC50 is 1720 nM. To `O=C(Nc1ccc2nc3n(c(=O)c2c1)CCCCC3)c1cc([N+](=O)[O-])ccc1F` belongs 14100 nM; to `c1ccc(-c2ccc(-c3nc(-c4ccccn4)no3)cc2)cc1`, 3750 nM; to `O=C(CSc1nnc(-c2cccnc2)s1)Nc1ccnc2ccccc12`, 661 nM. Regarding `CC(=O)OCCNc1cc(Sc2nc3ccccc3[nH]2)c2nonc2c1[N+](=O)[O-]`, the AC50 was 1860 nM.

For `O=C(CSc1nc(-c2ccco2)cc(C(F)(F)F)n1)Nc1ccc(C(=O)N2CCCCC2)cc1`, the AC50 is 2870 nM. To `O=C(NCc1ccccc1C(F)(F)F)c1cccc2c1C(=O)c1ccc(N3CCC(N4CCCCC4)CC3)cc1S2(=O)=O` belongs 21200 nM; to `COc1cc(C#Cc2c(-c3cncn3C)n(C)c3ccc(-c4ccc(OC)nc4)cc23)cc(OC)c1`, 20500 nM. As for `C=C1C(=O)O[C@H]2[C@H]1[C@H](OC(=O)CC(=O)O[C@@H]1C[C@@H](C)[C@@H]3C=CC(=O)[C@@]3(C)[C@H]3OC(=O)C(=C)[C@H]13)C[C@@H](C)[C@H]1C=CC(=O)[C@]12C`, the AC50 was 1540 nM. `CN(C)CCNC(=O)c1ccc(Cl)c2cc3ccccc3nc12`: the half-maximal activity concentration (AC50) is 9850 nM.

Take `Nc1nc(N)c2cc(S(=O)(=O)c3cccc(C(F)(F)F)c3)ccc2n1`: the AC50 is 5220 nM. For `Oc1cccc2cc(Nc3ccccc3)cnc12`, the AC50 is 644 nM. The same measure for `Cc1cccc(/C=C(\c2nc3ccccc3[nH]2)S(=O)(=O)c2ccccc2)c1`: 4500 nM; for `CCN(CC)S(=O)(=O)c1ccc(N(C)Cc2ccc(C(F)(F)F)cc2)nc1`: 5850 nM. As for `C=C1CC2(CC(c3ccccc3)OC(c3ccccc3)C2)OC1=O` (centres undefined), the AC50 was 2490 nM. The same measure for `COc1cc(NS(C)(=O)=O)ccc1Nc1c2ccccc2nc2ccccc12`: 1320 nM; for `CC1(C)CC[C@]2(C(=O)n3ccnc3)CC[C@]3(C)[C@H](C(=O)C=C4[C@@]5(C)C=C(C#N)C(=O)C(C)(C)[C@@H]5CC[C@]43C)[C@@H]2C1`: below 260 nM. On to `O=C(OCn1ncc(Cl)c(Cl)c1=O)c1cccc(C(F)(F)F)c1`, for which the AC50 was 3740 nM. For `COc1ccc(C2/C=C\CN(S(=O)(=O)c3ccc(C)cc3)[C@H](Cc3ccccc3)C(=O)N2Cc2ccc(F)cc2)cc1` (some centres undefined), the AC50 was 12900 nM. Regarding `Cc1cc(C)nc(/N=C(\N)Nc2ccc(-c3ccccc3)cc2)n1`, the AC50 was 4450 nM.

For `CCC(=O)c1cn(CC(=O)Nc2ccccc2Cl)c2ccccc12`, the concentration at half-maximal activity (AC50) is below 260 nM. As to `Cc1ccc(Nc2nc(NCC3CC3)nc3ccsc23)c(C)c1`, the AC50 was 5820 nM. Take `Cn1c(=O)c2[nH]c(CCCCCCCCc3nc4ccccc4[nH]3)nc2n(C)c1=O`: the AC50 is 3980 nM. On to `CC[C@@H](C)[C@H](CNC)NC[C@@H](Cc1cccc2ccccc12)NCCc1cccc(C(F)(F)F)c1`, for which the AC50 is 8080 nM.

Take `Cc1ccc(C)c(S(=O)(=O)Nc2ccc(-n3cnnn3)cc2)c1`: the AC50 was > 70000 nM (inactive). With `CCCC(=O)N1CCN(c2ccc(NC(=O)c3ccc([N+](=O)[O-])o3)cc2Cl)CC1`, the AC50 was 700 nM. `CCC1CN2CCc3cc(OC)c(OC)cc3C2CC1CC1NCCc2c1[nH]c1ccc(O)cc21` (centres undefined): the AC50 is below 260 nM. To `O=C(Nc1ccc2nc3n(c(=O)c2c1)CCCCC3)c1c(F)ccc([N+](=O)[O-])c1F` belongs 2300 nM; to `CSc1nc(N2CCN(Cc3ccc4c(c3)OCO4)CC2)c2ccccc2n1`, 24100 nM; to `O=[N+]([O-])c1ccc(O)c(-c2cc(C(F)(F)F)nc(-c3ccccc3)n2)c1`, 2730 nM. The same measure for `COc1c(CC=C(C)C)cc(C2CC(=O)c3c(O)cc(O)cc3O2)cc1CC=C(C)C` (centres undefined): 5420 nM. Consider `C=C1CC2(OC1=O)c1ccccc1CCc1ccccc12`, for which the AC50 is 1280 nM. The same measure for `O=C(O)c1cccc(COc2ccc(CO)cc2Cl)c1`: 1040 nM; for `Cn1c(=O)[nH]c(=O)c2c1nc([N+](=O)[O-])n2Cc1ccccc1`: 1900 nM.

As for `Cc1c(C)c2ccc(OCC(=O)Nc3ccccn3)c(C)c2oc1=O`, the AC50 is 416 nM. Take `CC1C(=O)N(Cc2cn(CCC3OCCCO3)nn2)CCS(=O)(=O)N1Cc1ccc(-c2ccc(Cl)c(Cl)c2)cc1` (centres undefined): the AC50 is 3390 nM.

For the compound `O=C(NCc1cccc(Cl)c1)c1cc(COc2ccc3ncccc3c2)on1`, the AC50 was 3050 nM. Take `CCC(=O)c1ccc(OCc2ccc(C(=O)c3ccccc3)cc2)cc1`: the AC50 was 3290 nM.

With `CCOC(=O)N1CCN(S(=O)(=O)c2ccc(C(=O)Nc3nc4ccc(F)cc4s3)cc2)CC1`, the AC50 was 4790 nM. In the case of `Cc1cc(Nc2cccc(Cl)c2)nc(NCc2ccccc2)n1`, the AC50 is 1640 nM. Turning to `CCCCOC(=O)c1[nH]c2c(c1C)C(=O)CC(c1cc(OC)c(OC)c(OC)c1)C2` (centres undefined), the concentration at half-maximal activity (AC50) is 1350 nM. To `CC(=O)Nc1cccc(NC(=O)CSc2ncc(-c3ccc(Cl)cc3)n2Cc2ccco2)c1` belongs 4950 nM; to `COc1cccc(CNc2nc(NCC3CC3)nc3ccsc23)c1OC`, 4480 nM; to `C=CCNc1nc2c(c(=O)n(C)c(=O)n2C)n1CCCCCC`, 761 nM. For `COc1ccc(CN2CCC(C(=O)Nc3ccc(Oc4cccnc4)cc3)CC2)c(C)c1C`, the AC50 was 3680 nM. `COC(=O)c1ccc(COC(=O)c2[nH]c(C)c(C(C)=O)c2C)o1`: the AC50 was 2580 nM. As to `O=C(NNC(=O)C(c1ccccc1)c1ccccc1)c1ccccn1`, the AC50 was 2870 nM. The same measure for `CCCCCCCNC(=O)C1(CC2CC(c3cccc(Br)c3)=NO2)CCNCC1` (centres undefined): 11700 nM; for `CCCCn1c(CN2CCN(c3ccc(F)cc3)CC2)nc2c1c(=O)n(C)c(=O)n2C`: 2730 nM. To `CN(Cc1nccs1)C(=O)c1cc(COc2cccc3cnccc23)on1` belongs 2770 nM; to `NS(=O)(=O)c1ccc(CCNCc2cc(Br)ccc2OCc2ccccc2F)cc1`, 4650 nM; to `O=C(NCCc1ccccc1)c1ccc2c(c1)OCCCO2`, 1050 nM. To `Cn1c(=O)n(C)c2cc([N+](=O)[O-])c(N3CCN(S(=O)(=O)c4ccc(C(C)(C)C)cc4)CC3)cc21` belongs 3530 nM; to `CC1CCC2C(=O)N(c3ccc(Cc4ccncc4)cc3)C(=O)C2C1` (centres undefined), 2650 nM. As to `CC1(c2ccc3ccccc3c2)NC(=O)N(CC(=O)N2CCN(Cc3ccc(C#N)cc3)CC2)C1=O` (centres undefined), the AC50 was 416 nM.
